Measured values: patent publication US10583094B2

Experiments:
SUR1 = SUR1 knockdown by antisense ODN infusion at gelfoam implantation site; R1 astrocyte response to Na azide; assay type: cell-based, rat; conditions: for Depolarization of R1 astrocytes on Na azide: Na azide 1 mM
From the text: To further test involvement of SUR1, SUR1 expression was “knocked down” in situ by infusing oligodeoxynucleotide (ODN) for 14 days using a mini-osmotic pump, with the delivery catheter placed in the gelfoam implantation site in the brain, in the otherwise standard model we use for R1 astrocyte isolation ([…] et al., 1980, […] et al., 2002, […] et al., 2000, […] et al., 1999). Knockdown of SUR1 expression (SUR1KD) was achieved using antisense (AS; [NT] ID NO: 9)) (Yokoshiki et al., 1999) oligodeoxynucleotide (ODN), with scrambled ([…] ID NO: 10)) ODN being used as control. […] In R1 astrocytes from SUR1KD, however, Na azide had little effect on resting membrane potential (FIG. 24D).

[1] = test system: freshly isolated R1 astrocytes; assay: Na azide-induced blebbing and cell death of freshly isolated R1 astrocytes
rodent model of stroke = assay: Rodent model of stroke, mortality and hemisphere water (Example 9); assay type: in vivo, rat; conditions: n=5 in each group
MCA stroke (MCE model) [2] = assay: MCA stroke (MCE model): tissue water content by wet/dry weight; assay type: in vivo, Wistar rats; conditions: 8 hr after stroke
Method: For large MCA strokes with malignant cerebral edema (MCE), the inventors first embolized microparticles (Nakabayashi et al., 1997) [polyvinyl alcohol (PVA) particles; […] […] TTC(−) portions of the involved hemisphere. […] Of these, 15 rats were used for validation of drug action (mortality, tissue water and glucose) and 5 rats were used for determination of drug distribution. […] For stroke size, stained sections were photographed and images were analyzed (Scion Image) to determine the percent of the involved hemisphere occupied by TTC(−) tissue; no correction for edema was performed. For some determinations of water or SUR1 protein content, individual coronal sections were divided under magnification into 3 parts: (i) the non-involved, control hemisphere; (ii) the TTC(+) portion of the involved hemisphere; (iii) the TTC(−) portion of the involved hemisphere. For each animal, pooled tissues from the 3 parts were then processed for tissue water measurements or for Western blots. Tissue water was quantified by the wet/dry weight method (Hua et al., 2003). Tissue samples were blotted to remove small quantities of adsorbed fluid. Samples were weighed with a precision scale to obtain the wet weight (WW), dried to constant weight at 80° C. and low vacuum, and then reweighed to obtain the dry weight (WD). The percent H2O of each tissue sample was then calculated as (WW-WD)×100/WW.

thromboembolic stroke = assay: Thromboembolic stroke with rtPA reperfusion at 6 hr: hemorrhagic conversion; assay type: in vivo, spontaneously hypertensive rats; conditions: rtPA 10 mg/kg i.v. at 6 hr, 24 hr after stroke
Method: A rodent model of thromboembolic stroke was used (Aoki et al., 2002; Kijkhuizen et al., 2001; Kano et al., 2000; Sumii et al., 2002; Tejima et al., 2001). […] Sumii et al., 2002). Rectal temperature was maintained at 37° C. with a thermostat-controlled heating pad. The right femoral artery was cannulated, and physiological parameters, including temperature, mean blood pressure, pH, pO2, and pCO2, glucose were monitored. Temporary focal ischemia was obtained with an embolic model that used allogeneic clots to occlude the MCA. Allogeneic, thrombin-induced, fibrin-rich blood clots were prepared using methods adapted from […] et al. (Asahi et al., 2000; […] et al., 2003; Sumii et al., 2002). Seven clots, 1.5 mm long, were used for embolizing. Using a ventral cervical incision, the internal and external carotid arteries were exposed. The external carotid artery and pterygopalatine arteries were ligated. Removable surgical clips were applied to the common and internal carotid arteries. The modified PE-50 catheter containing the clots was inserted retrograde into the external carotid artery and advanced up to the internal carotid artery. The temporary clips were removed, and the clots were injected. Incisions were closed. […] Physiological parameters, including temperature, mean blood pressure (tail cuff plethysmography), blood gases and glucose were monitored. […]

MMP-9 & MMP-2 = assay: Zymography of gelatinase activity of recombinant enzyme and stroke tissue; assay type: biochemical; conditions: glibenclamide 10 μM; MMP inhibitor II 300 nM
Method: Activation of MMP-9 & MMP-2 in stroke tissue was compared to controls.
Next, the supernatants underwent a gelatinase purification process with gelatin-Sepharose 4B (Pharmacia), and Zymography was performed on the purified supernatants in sodium dodecyl sulfate gels containing gelatin (Rosenberg, 1994). Dried gels were scanned with a transparency scanner, and images were analyzed by densitometry. The relative lysis of an individual sample was expressed as the integrated density value of its band and divided by the protein content of the sample.

[3] = rat, in vivo
MCA stroke (MCE model) [4] = test system: MCA stroke (MCE model); parameters: species or system Wistar rats; conditions: rat, in vivo, sc

Compound: 5′-GGCCGAGTGGTTCTCGGT-3′ (chemistry not given here) [AS-ODN, antisense oligodeoxynucleotide used to knock down SUR1 expression]
- Depolarization of R1 astrocytes on Na azide (SUR1): little or no depolarization
- Depolarization of R1 astrocytes on Na azide (SUR1; listed as SUR1KD): 8.7±1.7 mV
- SUR1 expression in gliotic capsule (immunoblot) (SUR1; ODN infused for 14 days, compared with scrambled ODN): significant reduction in SUR1 expression
- Membrane blebbing after exposure to Na azide (SUR1; R1 astrocytes): not observed

Compound: CC1=NS(=O)(=O)c2cc(Cl)ccc2N1 [diazoxide]
- Cell morphology (blebbing) on exposure to channel opener ([1]; phase contrast, observed over 30 min): developed progressive blebbing consistent with cytotoxic edema

Compound: COc1ccc(Cl)cc1C(=O)NCCc1ccc(S(=O)(=O)NC(=O)NC2CCCCC2)cc1 [glibenclamide]
- Excess water in stroke hemisphere compared with saline-treated rats (rodent model of stroke): only half as much excess water
- Rise of water in TTC(+) tissue over uninvolved hemisphere (MCA stroke (MCE model) [2]): 2.5%
- Rise of water in involved hemisphere over control hemisphere (MCA stroke (MCE model) [2]): 2.0%
- Animals with hemorrhagic conversion (thromboembolic stroke; co-treated with glibenclamide 1.5 μg/kg i.v. plus pump 300 μM at ½ μl/hr): 1/5
- Animals showing no evidence of hemorrhage (thromboembolic stroke; co-treated with glibenclamide): 4/5
- Gelatinase activity in presence of compound (MMP-9 & MMP-2): the same as that assayed without
- Serum glucose at 8 hr [3]: 93 ± 3 mg/dL
- Necrotic death (propidium iodide) induced by Na azide ([1]; Na azide 1 mM, glibenclamide 1 μM): largely prevented

Compound: BODIPY-FL-glyburide [BODIPY-glibenclamide]
- Mortality during 7 days after MCA stroke (MCA stroke (MCE model) [4]): 40%
- Water in TTC(+) tissue of involved hemisphere (MCA stroke (MCE model) [2]): 82.7±1.4%
